In the NIST ThermoML archive (doi:10.1007/s10765-009-0648-5):
Numbers after ± are expanded uncertainties.

Assay: wn = mass fraction of the nth substance listed
Conditions: 101 kPa, Liquid

CCC[n+]1ccn(C)c1.[Br-] [1-methyl-3-propylimidazolium bromide] + CN(C)C=O
Conditions | mass density, 288.15 K [kg/m3] | mass density, 293.15 K [kg/m3] | mass density, 298.15 K [kg/m3] | mass density, 303.15 K [kg/m3] | mass density, 308.15 K [kg/m3] | speed of sound, 288.15 K [m/s] | speed of sound, 293.15 K [m/s] | speed of sound, 298.15 K [m/s] | speed of sound, 303.15 K [m/s] | speed of sound, 308.15 K [m/s]
w1 = 0.006 | 955.471 ± 0.59 | 950.721 ± 0.61 | 945.962 ± 0.64 | 941.197 ± 0.66 | 936.424 ± 0.68 | 1498.4 ± 1.5 | 1479.2 ± 1.5 | 1459.8 ± 1.5 | 1440.5 ± 1.5 | 1421.2 ± 1.5
w1 = 0.0073 | 955.896 ± 0.59 | 951.148 ± 0.61 | 946.392 ± 0.63 | 941.628 ± 0.66 | 936.859 ± 0.68 | 1498.7 ± 1.5 | 1479.5 ± 1.5 | 1460.1 ± 1.5 | 1440.8 ± 1.5 | 1421.5 ± 1.5
w1 = 0.0101 | 956.834 ± 0.58 | 952.089 ± 0.61 | 947.339 ± 0.63 | 942.58 ± 0.65 | 937.812 ± 0.67 | 1499.5 ± 1.5 | 1480.2 ± 1.5 | 1460.8 ± 1.5 | 1441.4 ± 1.5 | 1422.2 ± 1.5
w1 = 0.012 | 957.413 ± 0.58 | 952.669 ± 0.6 | 947.92 ± 0.63 | 943.162 ± 0.65 | 938.398 ± 0.67 | 1499.8 ± 1.5 | 1480.3 ± 1.5 | 1460.9 ± 1.5 | 1441.6 ± 1.5 | 1422.5 ± 1.5
w1 = 0.0162 | 958.776 ± 0.58 | 954.039 ± 0.6 | 949.295 ± 0.62 | 944.542 ± 0.64 | 939.782 ± 0.67 | 1500.8 ± 1.5 | 1481.6 ± 1.5 | 1462.2 ± 1.5 | 1442.9 ± 1.5 | 1423.7 ± 1.5
w1 = 0.0204 | 960.154 ± 0.57 | 955.416 ± 0.59 | 950.675 ± 0.61 | 945.932 ± 0.64 | 941.175 ± 0.66 | 1501.7 ± 1.5 | 1482.2 ± 1.5 | 1462.9 ± 1.5 | 1443.6 ± 1.5 | 1424.5 ± 1.5
w1 = 0.0249 | 961.605 ± 0.56 | 956.878 ± 0.59 | 952.144 ± 0.61 | 947.403 ± 0.63 | 942.652 ± 0.65 | 1502.7 ± 1.5 | 1483.5 ± 1.5 | 1464.2 ± 1.5 | 1445 ± 1.5 | 1425.8 ± 1.5
w1 = 0.0303 | 963.324 ± 0.56 | 958.602 ± 0.58 | 953.872 ± 0.6 | 949.136 ± 0.62 | 944.395 ± 0.65 | 1503.7 ± 1.6 | 1484.4 ± 1.5 | 1465.1 ± 1.5 | 1445.9 ± 1.5 | 1426.9 ± 1.5
w1 = 0.0348 | 964.79 ± 0.55 | 960.068 ± 0.57 | 955.349 ± 0.59 | 950.617 ± 0.62 | 945.882 ± 0.64 | 1504.8 ± 1.6 | 1485.4 ± 1.5 | 1466.2 ± 1.5 | 1447 ± 1.5 | 1428.1 ± 1.5
w1 = 0.0405 | 966.57 ± 0.54 | 961.858 ± 0.57 | 957.139 ± 0.59 | 952.415 ± 0.61 | 947.684 ± 0.63 | 1505.8 ± 1.6 | 1486.5 ± 1.5 | 1467.3 ± 1.5 | 1448.2 ± 1.5 | 1429.2 ± 1.5
w1 = 0.0503 | 969.758 ± 0.53 | 965.06 ± 0.55 | 960.356 ± 0.57 | 955.641 ± 0.6 | 950.923 ± 0.62 | 1507.8 ± 1.6 | 1488.8 ± 1.5 | 1469.7 ± 1.5 | 1450.5 ± 1.5 | 1431.6 ± 1.5
w1 = 0.0586 | 972.333 ± 0.52 | 967.639 ± 0.54 | 962.94 ± 0.56 | 958.234 ± 0.59 | 953.523 ± 0.61 | 1509.3 ± 1.6 | 1490.1 ± 1.5 | 1471 ± 1.5 | 1452 ± 1.5 | 1433.1 ± 1.5
w1 = 1 | 1323.47 ± 3.3 | 1319.84 ± 3.3 | 1316.22 ± 3.3 | 1312.6 ± 3.2 | 1308.97 ± 3.2 | 1699.3 ± 2.6 | 1685 ± 2.6 | 1672 ± 2.6 | 1659.9 ± 2.6 | 1648.3 ± 2.6
